Test results from patent publication US12497403B2, “Factor XIa inhibitors” (Merck Sharp & Dohme LLC, priority 2021, dated 2025).
Values after ≈ are worked out from the molar mass of the structure shown. Like-named read-outs stand apart in the source and are kept apart here.

Experiments:
[1] = target: human Factor XIa (Homo sapiens, UniProt P03951); experiment: Factor XIa assay; assay type: biochemical; conditions: human Factor XIa 0.04 nM, GPR-AFC substrate, 25° C., pH 7.4; read-out: FXIa IC50
Method: (§1) The effectiveness of a compound of the present invention as an inhibitor of Coagulation Factor XIa can be determined using a relevant purified serine protease, and an appropriate synthetic substrate. The rate of hydrolysis of the chromogenic or fluorogenic substrate by the relevant serine protease was measured both in the absence and presence of compounds of the present invention. Assays were conducted at room temperature or at 37° C. […] A decrease in the rate of fluorescence change in the presence of inhibitor is indicative of enzyme inhibition. Such methods are known to one skilled in the art. The results of this assay are expressed as the half-maximal inhibitory concentrations (IC50), or the inhibitory constant, Ki.
Compounds were pre-incubated for 30 minutes at 25° C. with human (0.04 nM) Factor XIa in 50 mM HEPES buffer with 150 mM sodium chloride, 5 mM calcium chloride, 0.1% PEG 8000, pH 7.4. Factor XIa enzymatic activity was determined by addition of the substrate glycine-proline-arginine-7-amido-4-trifluoromethylcoumarin (GPR-AFC) and measurement of the fluorescence at 400/505 nm after a 60 minute incubation at 25° C. The % inhibition for each data point was calculated from the data and analyzed using the log (inhibitor) vs. response four parameters equation to determine the half-maximal inhibitory concentrations (IC50). The IC50 were converted to equilibrium inhibitory constants (Ki) using the Cheng-Prusoff equation.

[2] = target: T1, Human plasma kallikrein (Homo sapiens, UniProt P03952); experiment: Kallikrein assay (plasma kallikrein); assay type: biochemical; conditions: purified Human plasma kallikrein 0.5 nM, Acetyl-K-P-R-AFC substrate, pH 7.4; read-out: pKal IC50
T1 construct: yields a heavy chain (371 amino acids) and a light chain (248 amino acids); purchased Enzyme Research Laboratories
T1 sequence (P03952 391-638 limits assumed): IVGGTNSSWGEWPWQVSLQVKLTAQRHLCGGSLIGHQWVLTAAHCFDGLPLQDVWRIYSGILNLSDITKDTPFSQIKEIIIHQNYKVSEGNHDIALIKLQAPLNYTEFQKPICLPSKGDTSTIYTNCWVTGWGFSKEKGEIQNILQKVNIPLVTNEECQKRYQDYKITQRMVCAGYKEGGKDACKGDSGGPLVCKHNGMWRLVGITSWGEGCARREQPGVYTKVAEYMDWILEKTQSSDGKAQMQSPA
T1 sequence (P03952 20-390 partner limits assumed): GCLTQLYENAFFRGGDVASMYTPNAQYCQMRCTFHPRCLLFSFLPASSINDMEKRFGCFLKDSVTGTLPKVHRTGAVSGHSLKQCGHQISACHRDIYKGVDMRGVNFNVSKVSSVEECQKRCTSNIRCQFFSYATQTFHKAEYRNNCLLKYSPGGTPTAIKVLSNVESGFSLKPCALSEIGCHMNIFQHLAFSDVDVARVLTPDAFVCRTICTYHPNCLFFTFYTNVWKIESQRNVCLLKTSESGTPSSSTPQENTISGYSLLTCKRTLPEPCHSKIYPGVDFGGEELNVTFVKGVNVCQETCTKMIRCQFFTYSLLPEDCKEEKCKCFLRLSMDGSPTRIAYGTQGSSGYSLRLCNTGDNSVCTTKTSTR
Method: as §1, with “Kallikrein” for “Coagulation Factor XIa”, “constant.” for “constant,”
Kallikrein determinations were made in 50 mM HEPES buffer at pH 7.4 containing 150 mM NaCl, 5 mM CaCl2, and 0.1% PEG 8000 (polyethylene glycol; Fisher Scientific). Determinations were made using purified Human plasma kallikrein at a final concentration of 0.5 nM (Enzyme Research Laboratories) and the synthetic substrate. Acetyl-K-P-R-AFC (Sigma # C6608) at a concentration of […].
Activity assays were performed by diluting a stock solution of substrate at least tenfold to a final concentration≤ 0.2 Km into a solution containing enzyme or enzyme equilibrated with inhibitor. Times required to achieve equilibration between enzyme and inhibitor were determined in control experiments. The reactions were performed under linear progress curve conditions and fluorescence increase measured at 405 Ex/510 Em nm. Values were converted to percent inhibition of the control reaction (after subtracting 100% Inhibition value). IC50 was determined by inflection point from a four parameter logistic curve fit. Ki was calculated using the Cheng Prusoff equation. Ki=IC50/(1+([S]/Km)).

[3] = High-throughput (HT) solubility determination; assay type: physicochemical; conditions: kinetic from dmso stock
Method: The chromatographic system consists of an Agilent 1290 UPLC/DAD system and ChemStation software, both from Agilent Technologies, USA. The separations are carried out on a Supelco Ascentis Express C18, 30 mm×3.0 mm I.D., 2.7 μm HPLC column. The mobile phase consists of Potassium phosphate buffered at pH 7 (mobile phase A) and acetonitrile (mobile phase B). The column oven temperature is set to 30° C. and the UPLC analysis consists of a gradient. The injection volume is 2 μL and the spectrophotometric detection is set to 215 and 238 nm.
A 10 mM stock solution of the compound in DMSO is supplied for analysis. 2.5 μL of stock solution (10 mM) was diluted into 247.5 μL of organic co-solvents (10% MeCN/80% MeOH/10% DMSO, v/v/v) to create a standard solution of 100 μM. To create the solubility solutions, 4.1 μL of 10 mM DMSO stock solution was diluted into […] of phosphate buffered saline (PBS) (pH 7) solution. A second 4.1 μL aliquot of 10 mM DMSO stock solution was added to 196 μL of PBS (pH 2) solution. A third 4.1 uL aliquot of 10 mM DMSO stock solution was added to 196 uL of FaSSIF (pH 6.5) solution. […] The equilibrated solubility solutions were filtered by centrifugation using a filter (0.45 μm, polypropylene). 50 μL each of the 100 μM standard solution and the filtered equilibrated solubility solutions were placed into a 384 well plate, and the plate was subsequently heat sealed.
Each standard and solubility solution was analyzed by UPLC/DAD. The solubility value was calculated by the following equation: Solubility=(Peak area of sample/Peak area of standard) (Standard concentration)

[4] = FaSSIF pH 6.5, shaken 24 hours at 25° C., read-out: pH 6.5 (FaSSIF) solubility
[5] = phosphate buffered saline (PBS) pH 2, aqueous buffer, PBS pH 2, shaken 24 hours at 25° C., read-out: pH 2 solubility

Sequence of human Factor XIa (P03951 388-625 limits assumed): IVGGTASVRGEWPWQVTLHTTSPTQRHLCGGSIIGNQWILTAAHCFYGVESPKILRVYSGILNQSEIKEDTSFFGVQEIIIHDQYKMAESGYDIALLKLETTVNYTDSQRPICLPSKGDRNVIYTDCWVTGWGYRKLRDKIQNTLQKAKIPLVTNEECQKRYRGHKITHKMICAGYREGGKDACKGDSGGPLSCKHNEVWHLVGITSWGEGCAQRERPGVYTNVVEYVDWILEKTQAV
Sequence of human Factor XIa (P03951 19-387 partner limits assumed): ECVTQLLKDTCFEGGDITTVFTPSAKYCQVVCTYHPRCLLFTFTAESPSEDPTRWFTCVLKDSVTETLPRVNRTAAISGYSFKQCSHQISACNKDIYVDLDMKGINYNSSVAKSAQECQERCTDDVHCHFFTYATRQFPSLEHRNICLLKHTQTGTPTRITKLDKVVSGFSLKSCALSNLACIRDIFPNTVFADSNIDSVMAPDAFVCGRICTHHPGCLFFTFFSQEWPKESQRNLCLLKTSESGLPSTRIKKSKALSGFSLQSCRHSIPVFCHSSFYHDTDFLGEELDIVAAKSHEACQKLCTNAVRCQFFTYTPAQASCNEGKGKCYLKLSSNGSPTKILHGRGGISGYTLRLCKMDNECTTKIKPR

Row | IC50 [1] [nM] | IC50 [2] [nM] | solubility kinetic at 24 h [3, 4] [µM] | solubility kinetic at 24 h [3, 5] [µM] | Structure (SMILES)
1 | 0.16 | 4.4 | 170 | 145 | COC(=O)Nc1ccc2c(c1)NC(=O)C(C)(C)CCC[C@H](c1ccc(-c3cc(F)ccc3OC(F)F)c[n+]1[O-])c1nc-2c(C(=O)O)[nH]1.N (single isomer, unassigned) [Example 7]
2 | 0.39 | 544 | 141 (≈ 102 µg/mL) | 154 (≈ 111 µg/mL) | COC(=O)Nc1ccc2c(c1)NC(=O)C(C)(C)CCC[C@H](c1ccc(-c3cc(F)ccc3-n3cc(C(F)(F)F)cn3)c[n+]1[O-])c1nc-2c(C(=O)O)[nH]1 [Example 8, (R,Z)-2-(1^5-carboxy-2^4-((methoxycarbonyl)amino)-5,5-dimethyl-4-oxo-1^1H-3-aza-1(4,2)-imidazola-2(1,2)-benzenacyclononaphane-9-yl)-5-(5-fluoro-2-(4-(trifluoromethyl)-1H -pyrazol-1-yl)phenyl)pyridine 1-oxide]
3 | 0.25 | 1.1 | 138 (≈ 85.8 µg/mL) | 125 (≈ 77.8 µg/mL) | COC(=O)Nc1ccc2c(c1)NC(=O)C(C)(C)CCC[C@H](c1ccc(-c3cccc(Cl)c3F)c[n+]1[O-])c1nc-2c(C(=O)O)[nH]1 [Example 9, (R,Z)-2-(1^5-carboxy-2^4-((methoxycarbonyl)amino)-5,5-dimethyl-4-oxo-1^1H-3-aza-1(4,2)-imidazola-2(1,2)-benzenacyclononaphane-9-yl)-5-(3-chloro-2-fluorophenyl)pyridine 1-oxide]
